This is an account of results in patent US20100105694A1, “SUBSTITUTED PYRAZINONE DERIVATIVES FOR USE AS A MEDICINE” (priority 2006, published 2010).

Test [1] concerns the target T1, human adrenergic-α2A receptor (Homo sapiens, UniProt P08913).
T1 construct: expressed in transfected cells; host or cells: CHO cells, stably transfected; membranes
T1 sequence (P08913 1-465): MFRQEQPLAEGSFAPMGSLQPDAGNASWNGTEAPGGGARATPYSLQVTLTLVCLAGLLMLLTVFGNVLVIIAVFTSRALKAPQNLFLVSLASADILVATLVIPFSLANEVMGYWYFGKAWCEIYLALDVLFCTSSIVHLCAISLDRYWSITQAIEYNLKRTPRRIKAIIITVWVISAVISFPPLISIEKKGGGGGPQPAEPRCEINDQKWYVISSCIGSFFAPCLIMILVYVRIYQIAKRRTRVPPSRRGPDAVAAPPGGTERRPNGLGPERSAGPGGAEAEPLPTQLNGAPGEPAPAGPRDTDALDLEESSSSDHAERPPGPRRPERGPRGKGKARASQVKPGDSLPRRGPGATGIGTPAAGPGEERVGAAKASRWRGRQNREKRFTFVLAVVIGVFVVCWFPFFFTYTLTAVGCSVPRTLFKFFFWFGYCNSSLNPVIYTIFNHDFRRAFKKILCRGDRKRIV
Put plainly: Radioligand binding experiment for hα2A receptor ([3H]raulwolscine, CHO cell membranes). The note with it: [3H]raulwolscine 1 nM, membranes of CHO cells transfected with human α2A receptor; read-out: h-α2A pIC50 (converted). As to the method: (§1) The interaction of a compound of Formula (I) with α2C-adrenoceptor receptors was assessed in in vitro radioligand binding experiments. In general, a low concentration of a radioligand with a high binding affinity for a particular receptor or transporter is incubated with a sample of a tissue preparation enriched in a particular receptor or transporter or with a preparation of cells expressing cloned human receptors in a buffered medium. During the incubation, the radioligand binds to the receptor or transporter. When equilibrium of binding is reached, the receptor bound radioactivity is separated from the non-bound radioactivity, and the receptor- or transporter-bound activity is counted. The interaction of the test compounds with the receptor is assessed in competition binding experiments. Various concentrations of the test compound are added to the incubation mixture containing the receptor- or transporter preparation and the radioligand. The test compound in proportion to its binding affinity and its concentration inhibits binding of the radioligand. The radioligand used for hα2A and hα2C receptor binding was [^3H]-raulwolscine.
(§2) CHO cells, stabile transfected with human adrenergic-α2A and α2C receptor cDNA, were cultured in Dulbecco's Modified Eagle's Medium (DMEM)/Nutrient mixture Ham's F12 (ratio 1:1) (Gibco, Gent-Belgium) supplemented with 10% heat inactivated fetal calf serum (Life Technologies, Merelbeke-Belgium) and antibiotics (100 IU/ml penicillin G, 100 μg/ml streptomycin sulphate, 110 μg/ml pyruvic acid and 100 μg/ml L-glutamine). One day before collection, cells were induced with 5 mM sodiumbutyrate. Upon 80-90% of confluence, cells were scraped in phosphate buffered saline without Ca^2+ and Mg^2+ and collected by centrifugation at 1500×g for 10 minutes. The cells were homogenised in Tris-HCl 50 mM using an Ultraturrax homogenizer and centrifuged for 10 minutes at 23,500×g. The pellet was washed once by resuspension and rehomogenization and the final pellet was resuspended in Tris-HCl, divided in 1 ml aliquots and stored at −70° C.
(§3) Membranes were thawed and re-homogenized in incubation buffer (glycylglycine 25 mM, pH 8.0). […] Filters were rinsed extensively with ice-cold rinsing buffer (Tris-HCl 50 mM pH 7.4). Filter-bound radioactivity was determined by scintillation counting in a Topcount (Packard, Meriden, Conn.) and results were expressed as counts per minute (cpm). Non-specific binding was determined in the presence of 1 μM oxymetazoline for the hα2A receptor and 1 μM spiroxatrine for hα2C receptors.
(§4) Data from assays in the presence of compound were calculated as a percentage of total binding measured in the absence of test compound. Inhibition curves, plotting percent of total binding versus the log value of the concentration of the test compound, were automatically generated, and sigmoidal inhibition curves were fitted using non-linear regression. The pIC50 values of test compounds were derived from individual curves.

Test [2] deals with T2, human adrenergic-α2C receptor (Homo sapiens, UniProt P18825).
T2 construct: expressed in transfected cells; host or cells: CHO cells, stably transfected; membranes
T2 sequence (P18825 1-462): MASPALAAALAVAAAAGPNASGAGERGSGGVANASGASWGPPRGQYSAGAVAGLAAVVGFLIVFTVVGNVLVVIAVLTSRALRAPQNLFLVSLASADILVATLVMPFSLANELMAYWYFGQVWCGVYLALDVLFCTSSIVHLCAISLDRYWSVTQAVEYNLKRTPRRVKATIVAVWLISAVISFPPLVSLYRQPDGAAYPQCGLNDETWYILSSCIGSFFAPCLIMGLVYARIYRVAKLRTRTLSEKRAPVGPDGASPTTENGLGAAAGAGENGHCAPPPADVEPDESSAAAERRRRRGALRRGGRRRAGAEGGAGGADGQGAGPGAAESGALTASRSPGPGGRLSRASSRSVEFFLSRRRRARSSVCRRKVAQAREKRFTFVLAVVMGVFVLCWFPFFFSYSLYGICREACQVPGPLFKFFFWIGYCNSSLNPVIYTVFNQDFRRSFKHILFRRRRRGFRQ
Put plainly: Radioligand binding experiment for α2C-adrenoceptor ([3H]raulwolscine, CHO cell membranes). The conditions noted are these: [3H]raulwolscine 1 nM, membranes of CHO cells transfected with human α2C receptor; read-out: h-α2C pIC50 (converted). The method, then: as §1, §2, §3, §4

For a further test, the target named is T3, 5HT-Transporter (Homo sapiens, UniProt P31645).
T3 construct: Human platelet membranes (Oceanix Biosciences Corporation, Hanover, Md., USA) were thawed; tissue Oceanix Biosciences Corporation; host or cells: human platelet membranes
Put plainly: Binding experiment for the 5HT-transporter ([3H]paroxetine, human platelet membranes). The conditions noted are these: [3H]paroxetine 0.5 nM, read-out: h-5HTT pIC50 (converted). As to the method:
as §1
Human platelet membranes (Oceanix Biosciences Corporation, Hanover, Md., USA) were thawed, diluted in buffer (Tris-HCl 50 mM, 120 mM NaCl and 5 mM KCl) and quickly (max 3 s) homogenised with an Ultraturrax homogenizer. […] Incubation was stopped by rapid filtration of the incubation mixture over GF/B filters, pre-wetted with 0.1% polyethyleneamine, using a Filtermate196 harvester (Packard, Meriden, Conn.). Filters were rinsed extensively with ice-cold buffer and radioactivity on the filters was counted in a Topcount liquid scintillation counter (Packard, Meriden, Conn.). Data were expressed as cpm. Imipramine (at 1 μM final concentration) was used to determine the non-specific binding.
as §4

Bounds are passed on as bounds.

T3 sequence (P31645 whole entry): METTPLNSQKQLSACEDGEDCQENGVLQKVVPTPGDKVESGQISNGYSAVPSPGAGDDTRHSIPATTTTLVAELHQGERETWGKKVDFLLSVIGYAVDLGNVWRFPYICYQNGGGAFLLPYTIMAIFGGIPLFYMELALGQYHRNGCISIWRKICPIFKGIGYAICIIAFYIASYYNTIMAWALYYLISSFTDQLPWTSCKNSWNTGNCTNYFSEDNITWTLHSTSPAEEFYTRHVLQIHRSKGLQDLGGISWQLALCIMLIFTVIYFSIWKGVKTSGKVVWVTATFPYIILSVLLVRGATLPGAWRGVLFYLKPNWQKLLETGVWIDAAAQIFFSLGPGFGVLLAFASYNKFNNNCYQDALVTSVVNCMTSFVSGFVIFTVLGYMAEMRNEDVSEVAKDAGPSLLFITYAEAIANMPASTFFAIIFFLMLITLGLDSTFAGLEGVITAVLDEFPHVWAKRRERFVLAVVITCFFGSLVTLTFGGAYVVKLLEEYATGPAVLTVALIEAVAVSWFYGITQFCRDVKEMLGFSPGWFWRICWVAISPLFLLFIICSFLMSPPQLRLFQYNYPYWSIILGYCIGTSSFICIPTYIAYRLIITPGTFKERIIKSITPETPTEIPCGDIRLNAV

On to `CCCn1ccnc(NC2CCN(CCCc3ccccc3)CC2)c1=O` [Compound 7-8], for which the values for the IC50 (in test [1]; in test [2]; at 5HT-Transporter) were 794 nM, 501 nM and 5010 nM, respectively.

As to `CC(C)(C)C(=O)Cn1ccnc(NC2CCN(CCCc3ccccc3)CC2)c1=O` [Compound 7-10], the values for the IC50 (in test [1]; in test [2]; on 5HT-Transporter) were 1260 nM, 316 nM and over 10000 nM, respectively.

With `O=c1c(NC2CCN(CCCc3ccccc3)CC2)nccn1Cc1ccccc1Br` [Compound 7-11], the IC50 is 1580 nM in test [1], 398 nM in test [2] and 2000 nM on 5HT-Transporter.

Consider `O=c1c(NC2CCN(CCCc3ccccc3)CC2)nccn1Cc1cccc(Br)c1` [Compound 7-12], for which the IC50 in test [1] was 2000 nM; in test [2] it was 501 nM; at 5HT-Transporter, 2510 nM.

As for `O=c1c(NC2CCN(CCCc3ccccc3)CC2)nccn1Cc1ccc(Br)cc1` [Compound 7-13], the figures for the IC50 (in test [1]; in test [2]; at 5HT-Transporter) were 1580 nM, 501 nM and 1000 nM, respectively.

With `O=C(Cn1ccnc(NC2CCN(CCCc3ccccc3)CC2)c1=O)c1ccccc1` [Compound 7-14], the IC50 in test [1] is 501 nM; in test [2] it was 398 nM; on 5HT-Transporter, 3980 nM.

With `CSCCn1ccnc(NC2CCN(CCCc3ccccc3)CC2)c1=O` [Compound 7-15], the IC50 was 1000 nM in test [1], 398 nM in test [2] and 3160 nM at 5HT-Transporter.

Take `CN(CCc1ccccc1)C1CCN(c2nccn(CCCN3C(=O)c4ccccc4C3=O)c2=O)CC1` [Compound 8-1]: the IC50 was 1000 nM in test [1], 25.1 nM in test [2] and 3160 nM on 5HT-Transporter.

As to `CN(CCc1ccccc1)C1CCN(c2nccn(CCC(=O)c3ccccc3)c2=O)CC1` [Compound 8-2], the IC50 in test [1] is 316 nM; in test [2], 63.1 nM; on 5HT-Transporter, over 10000 nM.

For `NCc1ccc(Cn2ccnc(NC3CCN(CC(c4ccccc4)c4ccccc4)CC3)c2=O)cc1` [Compound 9-2], the IC50 in test [1] is 794 nM; in test [2] it was 631 nM; on 5HT-Transporter, 2510 nM.

For `CC(C)(C)OC(=O)NCCCn1ccnc(NC2CCN(CC(c3ccccc3)c3ccccc3)CC2)c1=O` [Compound 9-3], the IC50 in test [1] is 3980 nM; in test [2] it was 316 nM; at 5HT-Transporter it was over 10000 nM.

For `CC(C)(C)OC(=O)NCc1ccc(Cn2ccnc(NC3CCN(CC(c4ccccc4)c4ccccc4)CC3)c2=O)cc1` [Compound 9-4], the values for the IC50 (in test [1]; in test [2]; on 5HT-Transporter) were 3160 nM, 631 nM and over 10000 nM, respectively.

Turning to `O=c1c(NC2CCN(CC(c3ccccc3)c3ccccc3)CC2)nccn1CCN1CCCCC1` [Compound 9-5], the IC50 in test [1] was 2510 nM; in test [2], 794 nM; on 5HT-Transporter, over 10000 nM.

As to `O=C1c2ccccc2C(=O)N1CCCn1ccnc(NC2CCN(CC(c3ccccc3)c3ccccc3)CC2)c1=O` [Compound 9-6], the IC50 in test [1] was 1260 nM; in test [2] it was 398 nM; at 5HT-Transporter it was 6310 nM.

Take `O=c1c(NC2CCN(CC(c3ccccc3)c3ccccc3)CC2)nccn1Cc1ccccc1Br` [Compound 9-7]: the IC50 in test [1] is 1000 nM; in test [2], 631 nM; at 5HT-Transporter it was over 10000 nM.

On to `O=c1c(NC2CCN(CC(c3ccccc3)c3ccccc3)CC2)nccn1Cc1cccc(Br)c1` [Compound 9-8], for which the results for the IC50 (in test [1]; in test [2]; at 5HT-Transporter) were 1260 nM, 631 nM and 5010 nM, respectively.

Consider `O=c1c(NC2CCN(CC(c3ccccc3)c3ccccc3)CC2)nccn1Cc1ccc(Br)cc1` [Compound 9-9], for which the IC50 is 1260 nM in test [1], 501 nM in test [2] and 6310 nM at 5HT-Transporter.

Take `O=C(Cn1ccnc(NC2CCN(CC(c3ccccc3)c3ccccc3)CC2)c1=O)c1ccccc1` [Compound 9-10]: the IC50 in test [1] is 2510 nM; in test [2], 631 nM; on 5HT-Transporter it was over 10000 nM.

As for `NCc1ccc(Cn2ccnc(N3CCN(CCc4ccccc4)CC3)c2=O)cc1` [Compound 10-1], the IC50 in test [1] is 794 nM; in test [2], 631 nM; on 5HT-Transporter it was over 10000 nM.

For `CC(C)(C)OC(=O)NCc1ccc(Cn2ccnc(N3CCN(Cc4ccccc4)CC3)c2=O)cc1` [Compound 10-2], the IC50 in test [1] was 251 nM; in test [2], 316 nM; at 5HT-Transporter it was over 10000 nM.

Take `C=CCn1ccnc(N2CCN(CCc3ccccc3)CC2)c1=O` [Compound 10-4]: the IC50 was 2510 nM in test [1], 631 nM in test [2] and over 10000 nM at 5HT-Transporter.

As to `O=c1c(N2CCN(Cc3ccccc3)CC2)nccn1C/C=C/c1ccccc1` [Compound 10-5], the IC50 in test [1] is 316 nM; in test [2], 631 nM; at 5HT-Transporter, over 10000 nM.

In the case of `O=c1c(N2CCN(CCc3ccccc3)CC2)nccn1C/C=C/c1ccccc1` [Compound 10-6], the IC50 in test [1] is 1000 nM; in test [2], 501 nM; on 5HT-Transporter, 5010 nM.

On to `O=c1c(N2CCN(CCc3ccccc3)CC2)nccn1Cc1ccc(-c2ccccc2)cc1` [Compound 10-8], for which the IC50 in test [1] was 794 nM; in test [2] it was 631 nM; at 5HT-Transporter, 5010 nM.

On to `O=c1c(N2CCN(CCc3ccccc3)CC2)nccn1Cc1ccc2ccccc2c1` [Compound 10-10], for which the IC50 in test [1] is 501 nM; in test [2], 316 nM; on 5HT-Transporter, 3160 nM.

For the molecule `O=c1c(N2CCN(CCc3ccccc3)CC2)nccn1Cc1ccc(Cl)s1` [Compound 10-11], the figures for the IC50 (in test [1]; in test [2]; on 5HT-Transporter) were 794 nM, 200 nM and over 10000 nM, respectively.

In the case of `COc1ccc(-c2nnc(Cn3ccnc(N4CCN(CCc5ccccc5)CC4)c3=O)o2)cc1` [Compound 10-12], the IC50 in test [1] was 1260 nM; in test [2], 501 nM; at 5HT-Transporter, over 10000 nM.

In the case of `NCc1ccc(Cn2ccnc(NC3CCN(Cc4ccc(OCc5ccccc5)cc4)CC3)c2=O)cc1` [Compound 11-1], the IC50 in test [1] was 251 nM; in test [2], 631 nM; on 5HT-Transporter, 2000 nM.
